In patent US4604239A, “Antibiotics” (Eli Lilly and Company, priority 1985, dated 1986):
In brackets after ≈: the same amount, converted by molar mass.

What was measured:
Fusobacterium symbiosum = experiment: agar-dilution MIC; assay type: cell-based; details: Fusobacterium symbiosum 1470; Table 14
Peptococcus constellatus = experiment: agar-dilution MIC; assay type: cell-based; details: Pc. constellatus 1468; Table 15
Procedure: (§1) The MIC values were determined by the agar-dilution method, and are recorded in Table 15, which follows.

[1] = tested on: Peptococcus asaccharolyticus; experiment: agar-dilution MIC; assay type: cell-based
Procedure: as §1

Viridans streptococcus = experiment: agar-dilution MIC; assay type: cell-based; details: Table 11
Propionibacterium acnes = experiment: agar-dilution MIC; assay type: cell-based
From the text: Antibiotic A41030 factors A, B and C have also been tested and found to be active against a genus of anaerobic bacteria identified as Propionibacterium acnes.

rumen fluid = experiment: in vitro rumen fluid fermentation, volatile fatty acids; set-up: species or system steer; details: 16 hours at 38° C.
From the text: Rumen fluid was obtained from a steer having a surgically-installed fistula opening into the rumen. The steer was maintained on a high-grain ration, the composition of which follows: A sample of rumen fluid was strained through 4 layers of cheesecloth and the filtrate was collected in a vacuum bottle. The particulate matter retained by the cheesecloth was resuspended in enough physiological buffer to return it to the original volume of the rumen fluid, and the suspension was again strained through cheesecloth. The buffer used is described below: The two filtrates were pooled in a separatory funnel and allowed to stand till particulate matter rose to the top. The clear layer was then separated and diluted 1:1 with the same buffer, and adjusted to pH 7.0. Ten ml. of the diluted rumen fluid thus prepared was placed in a 25 ml. flask with 90 mg. of finely-powdered high-grain ration, the composition of which is described above. The compound to be tested was weighed out and dissolved in the appropriate solvent, supra. The solution was placed on the finely-powdered ration in each test flask and dried. Two sets of four untreated control flasks each were also prepared. One set of four untreated control flasks was incubated for 16 hours at 38° C. with the test flasks. […] Fermentation in the incubated test and control flasks was stopped at the end of 16 hours by addition of 2 ml. of 25 percent metaphosphoric acid to each flask. All of the samples were allowed to settle, and the supernatant was analyzed by gas chromatographic methods for acetate, propionate, and butyrate. The analysis for each volatile fatty acid found in the zero-time controls was substracted from the analyses of the untreated controls and of the test flasks. The resulting values reflect the amount of each VFA produced during the 16-hour fermentation period. The data below are reported as the ratio of VFA's produced in treated flasks to VFA's produced in untreated control flasks.

[2] = tested on: Peptostreptococcus anaerobius; experiment: agar-dilution MIC; assay type: cell-based
[3] = tested on: Haemophilus parainfluenzae; experiment: agar-dilution MIC; assay type: cell-based; details: end point after 24 hours, Table 18
Shigella flexneri = Shigella flexneri SH-4; Table 11
From the text: The agar-dilution procedure described by the International Collaborative study (ICS) group was used to determine the minimum inhibitory concentrations (MIC's).

Streptococcus faecalis = experiment: agar-dilution MIC; assay type: cell-based; details: Streptococcus faecalis X66; Table 7
Neisseria sp. = experiment: agar-dilution MIC; assay type: cell-based; details: Table 10
Procedure: The test results are recorded in Table 10, which follows.

Bacteroides vulgatis = experiment: agar-dilution MIC; assay type: cell-based; details: B. vulgatis 1563; 24-hour; Table 12
From the text: (§2) The A41030 antibiotics, factors A, B, and C, are active against a genus of anaerobic bacteria identified as Bacteroides sp., the 24-hour MIC values being determined by the agar-dilution method, and are set forth in Table 12, which follows.

Bacteroides corrodens = experiment: agar-dilution MIC; assay type: cell-based; details: B. corrodens 1874; 24-hour; Table 12
From the text: as §2

[4] = tested on: Streptococcus sp. Group B; experiment: agar-dilution MIC; assay type: cell-based; details: end point after 24 hours, Table 18
From the text: The in vitro activity of antibiotic A41030 factors A and B against a number of representative aerobic, gram-positive bacteria, including Streptococcus sp. Group D, has been determined using a standard agar-dilution assay.

S. pneumoniae = experiment: experimental bacterial infection in mice; assay type: in vivo; details: two doses subcutaneously
Procedure: All of the A41030 factors tested have shown in vivo antimicrobial activity against experimental bacterial infections. When two doses of test compound were administered subcutaneously to mice in illustrative infections, the activity observed is measured as an ED50 value [effective dose in mg./kg. to protect fifty percent of the test animals: See Warren Wick, et al., J. Bacteriol. 81, 233-235 (1961)].

[5] = Pc. asaccharolyticus 1344, Table 15
[6] = P. acnes 104, 24-hour, Table 13
[7] = P. acnes 5170, 24-hour, Table 13
[8] = P. acnes 5176, 24-hour, Table 13
[9] = P. acnes 5187, 24-hour, Table 13
[10] = P. acnes 5197, 24-hour, Table 13
[11] = P. acnes 5227, 24-hour, Table 13
[12] = P. acnes 5228, 24-hour, Table 13
[13] = P. acnes 5229, 24-hour, Table 13
[14] = P. acnes 5246, 24-hour, Table 13
[15] = P. acnes 5292, 24-hour, Table 13
[16] = Propionibacterium acnes 79, Table 14
[17] = Peptostreptococcus anaerobius 1428, Table 14

For NC1C(=O)NC2Cc3ccc(c(Cl)c3)Oc3cc4cc(c3O)Oc3ccc(cc3Cl)C(O)C3NC(=O)C(NC(=O)C4NC(=O)C(NC2=O)c2cc(O)cc(c2)Oc2cc1ccc2O)c1cc(Cl)c(O)c(c1)-c1c(O)cc(O)cc1C(C(=O)O)NC3=O (stereo not drawn) [A41030 factor A], the MIC (Fusobacterium symbiosum) was 1.0 µg/mL (≈ 0.811 µM), the MIC (Peptococcus constellatus) was 0.5 µg/mL (≈ 0.405 µM) and the MIC ([1]; Pc. asaccharolyticus 1302, Table 15) was ≤ 0.03 µg/mL. For the same molecule, the MIC [1, 5] was 0.5 µg/mL (≈ 0.405 µM), the MIC (Viridans streptococcus; Viridans streptococcus SM-1134) was 0.5 µg/mL (≈ 0.405 µM) and the MIC (Viridans streptococcus; Viridans streptococcus SSI-910) was 0.25 µg/mL (≈ 0.203 µM). It also gave an MIC (Viridans streptococcus; Viridans streptococcus SSII-895) of 0.25 µg/mL (≈ 0.203 µM), an MIC (Propionibacterium acnes; [6]) of 0.25 µg/mL (≈ 0.203 µM) and an MIC (Propionibacterium acnes; P. acnes 107, 24-hour, Table 13) of 0.06 µg/mL (≈ 0.0486 µM). For the same molecule, the MIC (Propionibacterium acnes; [7]) was ≤ 0.03 µg/mL, the MIC (Propionibacterium acnes; [8]) was ≤ 0.03 µg/mL and the MIC (Propionibacterium acnes; [9]) was ≤ 0.03 µg/mL. The MIC (Propionibacterium acnes; [10]) was ≤ 0.03 µg/mL, the MIC (Propionibacterium acnes; P. acnes 5226, 24-hour, Table 13) was 0.5 µg/mL (≈ 0.405 µM) and the MIC (Propionibacterium acnes; [11]) was ≤ 0.03 µg/mL. The MIC (Propionibacterium acnes; [12]) was 1.0 µg/mL (≈ 0.811 µM), the MIC (Propionibacterium acnes; [13]) was 0.5 µg/mL (≈ 0.405 µM) and the MIC (Propionibacterium acnes; [14]) was 0.06 µg/mL (≈ 0.0486 µM). For the same molecule, the MIC (Propionibacterium acnes; [15]) was 0.06 µg/mL (≈ 0.0486 µM), the MIC (Propionibacterium acnes; [16]) was ≤ 0.25 µg/mL and the “Acetate, ratio of VFA's produced in treated flasks to untreated control flasks” value (rumen fluid; 1 mcg./ml.) was 1.01. The “Butyrate, ratio of VFA's produced in treated flasks to untreated control flasks” value (rumen fluid; 1 mcg./ml.) was 0.66, the “Propionate, ratio of VFA's produced in treated flasks to untreated control flasks” value (rumen fluid; 1 mcg./ml.) was 1.31 and the “Acetate, ratio of VFA's produced in treated flasks to untreated control flasks” value (rumen fluid; 2 mcg./ml.) was 1.03. The “Butyrate, ratio of VFA's produced in treated flasks to untreated control flasks” value (rumen fluid; 2 mcg./ml.) was 0.94, the “Propionate, ratio of VFA's produced in treated flasks to untreated control flasks” value (rumen fluid; 2 mcg./ml.) was 1.33 and the MIC [2, 17] was ≤ 0.25 µg/mL. For the same molecule, the MIC ([2]; Ps. anaerobius 8, Table 15) was 0.5 µg/mL (≈ 0.405 µM), the MIC ([2]; Ps. anaerobius 52, Table 15) was 0.5 µg/mL (≈ 0.405 µM) and the MIC ([2]; Ps. anaerobius 59, Table 15) was 0.5 µg/mL (≈ 0.405 µM). For the same molecule, the MIC ([2]; Ps. anaerobius 1418, Table 15) was ≤ 0.03 µg/mL, the MIC ([2]; Ps. anaerobius 1428, Table 15) was 0.5 µg/mL (≈ 0.405 µM) and the MIC ([2]; Ps. anaerobius 1451, Table 15) was 0.5 µg/mL (≈ 0.405 µM). For the same molecule, the MIC ([2]; Ps. anaerobius 1477, Table 15) was 0.5 µg/mL (≈ 0.405 µM), the MIC ([3]; Haemophilus parainfluenzae 7901) was 16 µg/mL (≈ 13 µM) and the MIC ([3]; Haemophilus parainfluenzae 9796) was 16 µg/mL (≈ 13 µM). For the same molecule, the MIC (Shigella flexneri) was 64 µg/mL (≈ 51.9 µM), the MIC (Streptococcus faecalis) was < 0.5 µg/mL and the MIC (Neisseria sp.; Neisseria sp. L. Nance) was 4.0 µg/mL (≈ 3.24 µM). It also gave an MIC (Neisseria sp.; Neisseria sp. Mitchell) of 4.0 µg/mL (≈ 3.24 µM), an MIC (Neisseria sp.; Neisseria sp. Sanders) of 1.0 µg/mL (≈ 0.811 µM) and an MIC (Neisseria sp.; Neisseria sp. Schultz) of 8.0 µg/mL (≈ 6.49 µM). For the same molecule, the MIC (Neisseria sp.; Neisseria sp. Woods) was 4.0 µg/mL (≈ 3.24 µM), the MIC (Bacteroides vulgatis) was 32 µg/mL (≈ 25.9 µM) and the MIC (Bacteroides corrodens) was 32 µg/mL (≈ 25.9 µM). The MIC ([4]; Streptococcus sp. Group B 5) was 1 µg/mL (≈ 0.811 µM) and the MIC ([4]; Streptococcus sp. Group B 14) was 0.06 µg/mL (≈ 0.0486 µM).
A41030 factor C gave an MIC (Fusobacterium symbiosum) of 1.0 µg/mL, an MIC (Peptococcus constellatus) of 0.5 µg/mL and an MIC [1, 5] of 1.0 µg/mL. For the same molecule, the MIC ([1]; Peptococcus asaccharolyticus 1302, Table 14) was ≤ 0.25 µg/mL, the ED50 (S. pneumoniae) was 6.7 mg/kg and the MIC (Propionibacterium acnes; [6]) was 0.25 µg/mL. For the same molecule, the MIC (Propionibacterium acnes; [7]) was ≤ 0.03 µg/mL, the MIC (Propionibacterium acnes; [8]) was ≤ 0.03 µg/mL and the MIC (Propionibacterium acnes; [9]) was 0.06 µg/mL. The MIC (Propionibacterium acnes; [10]) was ≤ 0.03 µg/mL, the MIC (Propionibacterium acnes; [11]) was 0.06 µg/mL and the MIC (Propionibacterium acnes; [12]) was 1.0 µg/mL. It also gave an MIC (Propionibacterium acnes; [13]) of 0.5 µg/mL, an MIC (Propionibacterium acnes; [14]) of 0.06 µg/mL and an MIC (Propionibacterium acnes; [15]) of 0.06 µg/mL. For the same molecule, the MIC (Propionibacterium acnes; [16]) was ≤ 0.25 µg/mL, the MIC [2, 17] was ≤ 0.25 µg/mL and the MIC ([2]; Ps. anaerobius 52, Table 15) was 0.25 µg/mL. For the same molecule, the MIC ([2]; Ps. anaerobius 59, Table 15) was 0.25 µg/mL, the MIC ([2]; Ps. anaerobius 1418, Table 15) was ≤ 0.03 µg/mL and the MIC ([2]; Ps. anaerobius 1428, Table 15) was 0.25 µg/mL. For the same molecule, the MIC ([2]; Ps. anaerobius 1451, Table 15) was 0.25 µg/mL, the MIC ([2]; Ps. anaerobius 1477, Table 15) was 0.25 µg/mL and the MIC (Bacteroides vulgatis) was 32 µg/mL. The MIC (Bacteroides corrodens) was 32 µg/mL.
